Experimental data taken from US20210349099A1, “CANCER BIOMARKERS AND METHODS OF USE THEREOF” (X4 Pharmaceuticals, Inc., priority 2017, published 2021).

Columns and labels:
[1] = tested on: pancreatic adenocarcinoma; details: murine pancreatic adenocarcinoma; cited from earlier work
[2] = tested on: melanoma, renal cell carcinoma, and ovarian cancer; details: murine models; cited from earlier work
[3] = tested on: solid tumors, e.g. advanced or metastatic melanoma; experiment: Biomarker findings in tumors; type: in vivo
From the text: Granzyme B is associated with cell death/apoptosis mediated by cytotoxic T lymphocytes (CTLs), natural killer (NK) cells, and cytotoxic T cells. Accordingly, in some embodiments, the biomarker is an observed increase in granzyme B expression in a tumor relative to a control. In some embodiments, the cancer is a solid tumor such as advanced or metastatic melanoma. […] Accordingly, in some embodiments, the biomarker is an observed increase in CD8^+ T cells and/or CD4^+ T cells in a tumor relative to a control. In other embodiments, the biomarker is an increase in the ratio of CD8^+ T cells to Treg cells. In some embodiments, the increase is observed by immunohistochemistry or expression levels of one or both of CD8A and CD8B. In some embodiments, an increase in CD8^+ T cells and/or CD4^+ T cells or CD8^+ T cells/Treg ratio in a tumor sample from a patient who has undergone treatment with […]-001 or X4-136 correlates with an increased likelihood that the patient will benefit from continued treatment with […]-001 alone or in combination with an immunotherapeutic agent, e.g., a checkpoint inhibitor such as a PD-1 antagonist. In some embodiments, the PD-1 antagonist is selected from nivolumab and pembrolizumab, or a biosimilar or variant of such PD-1 antagonists. In some embodiments, the checkpoint inhibitor is nivolumab. In some embodiments, the checkpoint inhibitor is a nivolumab biosimilar or variant. In some embodiments, the checkpoint inhibitor is pembrolizumab. In some embodiments, the checkpoint inhibitor is a pembrolizumab biosimilar or variant. In some embodiments, the tumor is a solid tumor such as advanced or metastatic melanoma. […] In some embodiments, the biomarker is IDO1. In some embodiments, the biomarker is CXCL10. In some embodiments, the biomarker is CXCL9. In some embodiments, the biomarker is HLA-DRA. In some embodiments, the biomarker is STAT1. In some embodiments, the biomarker is IFN-γ. In some embodiments, the biomarker is two or more of IDOL, CXCL10, CXCL9, HLA-DRA, STAT1 and IFN-γ. In some embodiments, the biomarker is three or more of IDO1, CXCL10, CXCL9, HLA-DRA, STAT1 and IFN-γ. In some embodiments, the biomarker is four or more of IDOL, CXCL10, CXCL9, HLA-DRA, STAT1 and IFN-γ. In some embodiments, the biomarker is five or more of IDOL, CXCL10, CXCL9, HLA-DRA, STAT1 and IFN-γ. In some embodiments, the biomarker is all of IDOL, CXCL10, CXCL9, HLA-DRA, STAT1 and IFN-γ. In some embodiments, the biomarker is an increase of all of IDO1, CXCL10, CXCL9, HLA-DRA, STAT1 and IFN-γ. In some embodiments, an increase in one, two, three, four, five, or all of IDOL, CXCL10, CXCL9, HLA-DRA, STAT1 and IFN-γ in a tumor sample from a patient who has undergone treatment with […]-001 correlates with an increased likelihood that the patient will benefit from continued treatment with […]-001 alone or in combination with an immunotherapeutic agent, e.g., a checkpoint inhibitor such as a PD-1 antagonist. In some embodiments, the PD-1 antagonist is selected from nivolumab and pembrolizumab, or a biosimilar or variant of such PD-1 antagonists. In some embodiments, the checkpoint inhibitor is nivolumab. In some embodiments, the checkpoint inhibitor is a nivolumab biosimilar or variant. In some embodiments, the checkpoint inhibitor is pembrolizumab. In some embodiments, the checkpoint inhibitor is a pembrolizumab biosimilar or variant. In some embodiments, the tumor is a solid tumor such as advanced or metastatic melanoma. In some embodiments, the biomarker or the use thereof is one of those described in Ayers et al., Journal of Clinical Investigation 2017, 127(8), 2930-2940 [29] (“Ayers et al. (2017)”) or WO 2016/094377, each of which is hereby incorporated by reference. […] Accordingly, in some embodiments, the biomarker is maintenance or decrease of Treg levels in a tumor relative to a control. In some embodiments, the biomarker is the level of FoxP3 expression, which serves as a means to determine the Treg level. […]

B16-OVA tumors = experiment: B16-OVA syngeneic melanoma tumor growth; type: in vivo, C57BL/6 mice; details: sixteen (16) days of treatment, regimens of Table 9
Method: B16-OVA cells (˜1×10^5) were implanted in C57BL/6 mice. Animals were evaluated periodically and when tumors attained a size of approximately 3 mm×3 mm, animals were then grouped randomly and treated for sixteen (16) days.
At the end of treatment animals were sacrificed and dissected to evaluate and sample tumor masts.

[4] = tested on: unresectable or metastatic melanoma; details: Phase 3 trial, P<0.001; cited from earlier work
[5] = solid tumors, e.g. advanced or metastatic melanoma

c1cc(CN2CCCNCCNCCCNCC2)ccc1CN1CCCNCCNCCCNCC1 [AMD3100, reference compound]
T-cell accumulation among the cancer cells [1]: induced rapid T-cell accumulation | anti-tumor activity [2]: significant anti-tumor activity, including decreased metastasis and increased overall survival

Cc1cccnc1[C@H]1CCC[C@@H](c2ncccc2C)N1CCCCN [X4-136]
CTL signature gene expression in tumor samples or the tumor microenvironment ([3]; in vivo): increase | IFN-γ gene signature (panel of IFN-γ related genes) ([3]; in vivo): increase | PD-L1 expression in tumor samples and the tumor microenvironment ([3]; in vivo): increase | granzyme B (GZMB) expression in cancers [3, 5]: increases | levels of Treg cells [3, 5]: without significantly increasing | levels of macrophages in the tumor [3, 5]: without significantly modulating | observed numbers of CD8+ T cells and/or CD4+ T cells in cancers [3, 5]: increases | levels of the VISTA panel of biomarkers ([3]; tumor samples and the tumor microenvironment): modulate

NCCCCN(Cc1nc2ccccc2[nH]1)[C@H]1CCCc2cccnc21 [X4P]
tumor volumes (B16-OVA tumors): substantially reduced tumor volumes

Pembrolizumab: humanized IgG4 kappa monoclonal antibody that blocks the interaction between PD-1 and its ligands
objective response rate [4]: 33%

ipilimumab: anti-CTLA-4 antibody
objective response rate [4]: 12%
